Measurements from the supplement of paper PMC10307832.

Key:
Experiment in all cases: relative viability (nuclei count vs DMSO), 5 days (fraction); higher = more cells survive
[1] = compound: OCc1c[nH]c2ccccc12 [Indole-3-carbinol] + Cc1nc(Nc2ncc(C(=O)Nc3c(C)cccc3Cl)s2)cc(N2CCN(CCO)CC2)n1 [Dasatinib] (partner 0.075 µM)
Outline: (§1)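 For relative viability, nuclei counts in treated wells were divided by those in vehicle wells. Lung cancer cell lines had been pin-tool dosed in 1536-well plates the day after seeding and cultured for 5 days, then fixed and stained in one step (final 0.05% Triton X-100, 1% formaldehyde, 1 ug/ml Hoechst) and imaged at 4×. Doses were one drug alone or a fixed anchor-drug dose plus five library-drug doses (not always all listed) in √10 steps, and values are duplicate-plate medians.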

[2] = compound: OCc1c[nH]c2ccccc12 [Indole-3-carbinol] + COc1cc2c(Oc3ccc(NC(=O)C4(C(=O)Nc5ccc(F)cc5)CC4)cc3F)ccnc2cc1OCCCN1CCOCC1 [Foretinib] (partner 0.25 µM)
Outline: as §1

[3] = compound: OCc1c[nH]c2ccccc12 [Indole-3-carbinol] + O=C(c1cc(Cc2n[nH]c(=O)c3ccccc23)ccc1F)N1CCN(C(=O)C2CC2)CC1 [Olaparib] (partner 8 µM)
Outline: as §1

[4] = compound: OCc1c[nH]c2ccccc12 [Indole-3-carbinol] + Nc1ncn([C@H]2C[C@H](O)[C@@H](CO)O2)c(=O)n1 [Decitabine] (partner 2 µM)
Outline: as §1

[5] = compound: OCc1c[nH]c2ccccc12 [Indole-3-carbinol] + CC1(C)CCC(c2ccc(Cl)cc2)=C(CN2CCN(c3ccc(C(=O)NS(=O)(=O)c4ccc(N[C@H](CCN5CCOCC5)CSc5ccccc5)c(S(=O)(=O)C(F)(F)F)c4)cc3)CC2)C1 [Navitoclax] (partner 0.5 µM)
Outline: as §1

Cell Line	relative viability ([1]; first compound 0.253 µM)	relative viability ([1]; first compound 0.8 µM)	relative viability ([1]; first compound 2.53 µM)	relative viability ([1]; first compound 8 µM)	relative viability ([2]; first compound 0.253 µM)	relative viability ([2]; first compound 0.8 µM)	relative viability ([2]; first compound 2.53 µM)	relative viability ([2]; first compound 8 µM)	relative viability ([3]; first compound 0.253 µM)	relative viability ([3]; first compound 0.8 µM)	relative viability ([3]; first compound 2.53 µM)	relative viability ([3]; first compound 8 µM)	relative viability ([4]; first compound 0.253 µM)	relative viability ([4]; first compound 0.8 µM)	relative viability ([4]; first compound 2.53 µM)	relative viability ([4]; first compound 8 µM)	relative viability ([5]; first compound 0.253 µM)	relative viability ([5]; first compound 0.8 µM)	relative viability ([5]; first compound 2.53 µM)	relative viability ([5]; first compound 8 µM)
NCI-H1651	0.412	0.387	0.443	0.368	0.828	0.853	0.857	0.737	0.195	0.203	0.161	0.175	0.653	0.566	0.596	0.622	1.03	1.07	1.05	0.925
LC-2-ad	0.657	0.735	0.589	0.595	0.921	0.852	1.05	0.889	0.768	0.737	0.696	0.656	0.715	0.883	0.71	0.774	0.644	0.553	0.376	0.399
HCC-827	0.338	0.315	0.316	0.357	1.07	1.02	1.03	1.1	0.67	0.621	0.719	0.61	0.379	0.337	0.312	0.34	1.04	1.09	1.05	0.947
SK-LU-1	0.194	0.211	0.178	0.208	0.851	0.836	0.911	0.763	0.478	0.438	0.569	0.589	0.689	0.626	0.757	0.719	0.899	0.783	0.795	0.653
COR-L 105	0.368	0.337	0.396	0.301	1.22	0.838	0.963	1.03	0.642	0.655	0.713	0.685	0.607	0.598	0.631	0.626	0.718	0.701	0.821	0.631
LOU-NH91	0.621	0.573	0.585	0.535	0.927	0.964	0.963	0.924	0.916	0.872	0.974	0.893	0.827	0.781	0.818	0.831	0.71	0.599	0.673	0.74
LU99A	0.504	0.587	0.515	0.485	0.828	0.87	0.769	0.777	0.256	0.299	0.23	0.268	0.833	0.862	0.944	0.938	0.802	0.847	0.832	0.73
NCI-H1650	0.335	–	0.324	0.304	0.987	–	1.08	1.3	0.736	0.889	0.92	0.768	0.412	0.352	0.493	0.34	1.32	1.16	1.26	1.1
SW 1573	0.553	0.653	0.666	0.407	1.12	1.04	1.02	0.812	0.499	0.526	0.546	0.479	0.48	0.535	0.636	0.417	1.1	1.13	1.03	0.901
HOP-62	0.701	0.693	0.719	0.651	1.12	1.23	1.16	1.05	0.541	0.368	0.525	0.399	0.187	0.218	0.228	0.196	1.09	0.817	1.28	0.851
UMC-11	0.482	0.451	0.514	0.45	0.914	1.1	1.05	1.09	0.549	0.359	0.499	0.944	0.608	0.638	0.709	0.593	0.259	0.308	0.329	0.325
NCI-H1734	0.441	0.458	0.542	0.399	0.91	0.802	0.887	0.674	0.61	0.619	0.613	0.58	0.51	0.456	0.477	0.46	0.899	0.876	0.801	0.727
EKVX	0.564	0.54	0.535	0.67	0.859	0.97	0.844	0.829	0.797	0.938	0.851	0.85	0.326	0.353	0.326	0.381	1.13	1.01	0.983	0.873
HARA	0.289	0.296	0.323	0.198	0.777	0.932	1.09	0.809	0.568	0.77	0.331	0.701	0.566	0.549	0.637	0.47	1.18	1.17	1.14	1.16
EMC-BAC-2	0.329	0.307	0.337	0.312	1.02	1.01	0.917	0.923	0.493	0.51	0.504	0.467	0.953	0.96	0.957	0.889	1.16	1.21	1.11	1.04
PC-14	0.265	0.287	0.27	0.26	0.961	0.842	0.987	0.913	0.292	0.285	0.268	0.221	0.201	0.196	0.276	0.23	1.01	1.1	1.07	0.961
